Results from patent publication US20240109853A1 (Shanghai Yao Yuan Biotechnology Co., Ltd., priority 2020, published 2024).
Read-outs that look alike come from different tables or passages of the source.

Experiments:
ALPK1 = ALPK1 (Homo sapiens (Human), UniProt Q96QP1); assay: ALPK1 in vitro kinase assay (HTRF of TIFA phosphorylation); format: biochemical
[1] = test system: ALPK1-dependent NFκB reporter gene activation in HEK293 cells stably expressing an NF-kB reporter (G9 cells); assay: NFκB gene reporter alkaline phosphatase assay; format: cell-based; conditions: read-out: NFkB assay IC50
Procedure, shortened: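 HEK293 G9 cells stably carrying an NF-kB alkaline phosphatase reporter were seeded at 10,000 cells/well in Freestyle 293 medium and attached overnight. They were pretreated with serially diluted compound for 30 min, then stimulated with D-glycero-D-manno-6-fluoro-heptose-1β-S-ADP. Reporter phosphatase was read with pNPP; IC50 from logistic fit.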

hALPK1-V1092A = hALPK1-V1092A (Homo sapiens (Human), UniProt Q96QP1, V1092A); assay: cell-based
Procedure: Accordingly, we used IL-8 secretion as an indicator of activated ALPK1 inhibition in cells expressing these mutations.
Transfection was performed according to manufacturer's protocols (Lipofectamine™ 3000, ThermoFisher). Transfected cells were selected, seeded onto 96-well plates and treated with serial dilutions of the test compounds for 6.5 hr. Following treatment, cell viability was determined using a luminescent cell viability assay (Cell Counting-Lite Assay or “CCL Assay” from Vazyme Biotech Co., Ltd.) and cell free supernatants were collected and analyzed for IL-8 protein by IL-8 ELISA as described above.
Fresh medium and compound were added at 18 hours. Cell viability and IL-8 secretion were determined 6 hours after the second addition of compound, using the CCL assay and IL-8 ELISA as described above.

[2] = ALPK1 2 nM, TIFA substrate, ADP-Heptose activator, HTRF readout

Chain of ALPK1 (Q96QP1 whole entry): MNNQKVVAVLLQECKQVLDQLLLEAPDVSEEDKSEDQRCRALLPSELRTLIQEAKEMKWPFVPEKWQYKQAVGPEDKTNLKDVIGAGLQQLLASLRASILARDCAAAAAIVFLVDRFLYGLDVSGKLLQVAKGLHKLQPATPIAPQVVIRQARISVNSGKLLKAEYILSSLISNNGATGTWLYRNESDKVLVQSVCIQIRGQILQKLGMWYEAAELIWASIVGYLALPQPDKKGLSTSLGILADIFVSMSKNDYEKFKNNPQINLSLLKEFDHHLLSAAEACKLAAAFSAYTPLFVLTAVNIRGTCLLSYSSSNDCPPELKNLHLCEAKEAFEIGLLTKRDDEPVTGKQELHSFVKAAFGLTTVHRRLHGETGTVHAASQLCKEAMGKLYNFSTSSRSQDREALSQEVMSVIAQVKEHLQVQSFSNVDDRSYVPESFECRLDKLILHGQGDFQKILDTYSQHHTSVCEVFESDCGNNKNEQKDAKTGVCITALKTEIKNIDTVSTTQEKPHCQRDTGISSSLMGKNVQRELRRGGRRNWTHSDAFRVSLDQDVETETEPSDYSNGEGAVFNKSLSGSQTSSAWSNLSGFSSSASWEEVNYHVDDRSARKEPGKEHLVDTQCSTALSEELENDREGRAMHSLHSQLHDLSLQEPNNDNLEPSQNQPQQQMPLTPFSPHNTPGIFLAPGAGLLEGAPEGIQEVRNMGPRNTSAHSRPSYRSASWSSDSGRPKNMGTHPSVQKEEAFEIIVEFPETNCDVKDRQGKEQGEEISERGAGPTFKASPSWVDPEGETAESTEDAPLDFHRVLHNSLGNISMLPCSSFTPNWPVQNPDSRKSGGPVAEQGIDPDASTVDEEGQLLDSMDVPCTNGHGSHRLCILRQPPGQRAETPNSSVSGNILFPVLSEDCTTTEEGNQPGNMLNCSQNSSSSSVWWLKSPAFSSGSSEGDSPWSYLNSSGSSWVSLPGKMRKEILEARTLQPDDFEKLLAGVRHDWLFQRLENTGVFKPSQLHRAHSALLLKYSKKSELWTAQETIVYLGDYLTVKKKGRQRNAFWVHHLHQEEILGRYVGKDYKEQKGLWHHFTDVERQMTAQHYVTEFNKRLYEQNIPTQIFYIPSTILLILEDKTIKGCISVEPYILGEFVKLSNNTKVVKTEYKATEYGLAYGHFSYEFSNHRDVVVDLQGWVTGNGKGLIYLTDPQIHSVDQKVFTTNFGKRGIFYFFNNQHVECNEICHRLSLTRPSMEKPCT
Chain of hALPK1-V1092A (Q96QP1 whole entry V1092A): as the sequence (Q96QP1 whole entry) above, with V1092A counted along it

SMILES	IC50 (ALPK1) [nM]	IC50 ([1]; Homo sapiens, HEK293) [nM]	IC50 (hALPK1-V1092A) [nM]	IC50 [1] [nM]	IC50 (ALPK1; [2]) [nM]
C#C[C@@](C)(c1ccc(Cl)cc1)c1csc(NC(=O)N2CC(CN3CCNCC3)C2)n1 (stereo in doubt) [Example A292, N-(4-(2-(4-chlorophenyl)but-3-yn-2-yl)thiazol-2-yl)-3-(piperazin-1-ylmethyl)azetidine-1-carboxamide]	43	650	547		
C#C[C@@](C)(c1ccc(Cl)cc1)c1csc(NC(=O)NC(C)CO)n1 (stereo in doubt) [Example A312, 1-(4-(2-(4-chlorophenyl)but-3-yn-2-yl)thiazol-2-yl)-3-(1-hydroxypropan-2-yl)urea]		2120	16000		
C#C[C@@](C)(c1ccc(Cl)cc1)c1csc(NC(=O)NC(C)CO)n1 (stereo in doubt) [Example A313, 1-(4-(2-(4-chlorophenyl)but-3-yn-2-yl)thiazol-2-yl)-3-(1-hydroxypropan-2-yl)urea]			10200	2820	
C#C[C@](C)(c1ccc(Cl)cc1)c1csc(NC(=O)NC(C)CO)n1 (stereo in doubt) [Example A314, 1-(4-(2-(4-chlorophenyl)but-3-yn-2-yl)thiazol-2-yl)-3-(1-hydroxypropan-2-yl)urea]		800	4000		
C#C[C@](C)(c1ccc(Cl)cc1)c1csc(NC(=O)NC(C)CO)n1 (stereo in doubt) [Example A315, 1-(4-(2-(4-chlorophenyl)but-3-yn-2-yl)thiazol-2-yl)-3-(1-hydroxypropan-2-yl)urea]			2770	650	
C#C[C@](C)(c1ccc(Cl)cc1)c1csc(NC(=O)NCC(C)O)n1 (stereo in doubt) [Example A316, 1-(4-(2-(4-chlorophenyl)but-3-yn-2-yl)thiazol-2-yl)-3-(2-hydroxypropyl)urea]		1810	16400		
C#C[C@@](C)(c1ccc(Cl)cc1)c1csc(NC(=O)NCC(C)O)n1 (stereo in doubt) [Example A317, 1-(4-(2-(4-chlorophenyl)but-3-yn-2-yl)thiazol-2-yl)-3-(2-hydroxypropyl)urea]		970	1930		
C#C[C@@](C)(c1ccc(Cl)cc1)c1csc(NC(=O)NCC(C)O)n1 (stereo in doubt) [Example A319, 1-(4-(2-(4-chlorophenyl)but-3-yn-2-yl)thiazol-2-yl)-3-(2-hydroxypropyl)urea]			7860	670	
C#C[C@](C)(c1ccc(Cl)c(F)c1)c1csc(NC(=O)c2c(F)cc(N3CCNCC3)cc2F)n1 (stereo in doubt) [Example C037, N-(4-(2-(4-chloro-3-fluorophenyl)but-3-yn-2-yl)thiazol-2-yl)-2,6-difluoro-4-(piperazin-1-yl)benzamide]			8300		151
C#C[C@@](C)(c1ccc(Cl)c(F)c1)c1csc(NC(=O)c2c(F)cc(N3CCNCC3)cc2F)n1 (stereo in doubt) [Example C038, N-(4-(2-(4-chloro-3-fluorophenyl)but-3-yn-2-yl)thiazol-2-yl)-2,6-difluoro-4-(piperazin-1-yl)benzamide]			352		17
C#C[C@](C)(c1ccc(C)cc1)c1csc(NC(=O)c2c(F)cc(N3CCNCC3)cc2F)n1 (stereo in doubt) [Example C040, 2,6-difluoro-N-[4-[1-methyl-1-(p-tolyl)prop-2-ynyl]thiazol-2-yl]-4-piperazin-1-yl-benzamide]			68		29
C#C[C@@](C)(c1ccc(C)cc1)c1csc(NC(=O)c2c(F)cc(N3CCNCC3)cc2F)n1 (stereo in doubt) [Example C041, 2,6-difluoro-N-[4-[1-methyl-1-(p-tolyl)prop-2-ynyl]thiazol-2-yl]-4-piperazin-1-yl-benzamide]			954		7
C#C[C@@](C)(c1ccc(OC)cc1)c1csc(NC(=O)c2c(F)cc(N3CCNCC3)cc2F)n1 (stereo in doubt) [Example C048, 2,6-difluoro-N-(4-(2-(4-methoxyphenyl)but-3-yn-2-yl)thiazol-2-yl)-4-(piperazin-1-yl)benzamide]			5570		16
C#C[C@](C)(c1ccc(Cl)cc1)c1csc(NC(=O)NCCO)n1 [Example A175, (R)-1-(4-(2-(4-chlorophenyl)but-3-yn-2-yl)thiazol-2-yl)-3-(2-hydroxyethyl)urea]	32	1310	4030		
C#C[C@@](C)(c1ccc(Cl)cc1)c1csc(NC(=O)NCCO)n1 [Example A176, (S)-1-(4-(2-(4-chlorophenyl)but-3-yn-2-yl)thiazol-2-yl)-3-(2-hydroxyethyl)urea]	5.4	280	1550		
C#CC(C)(c1ccc(Cl)cc1)c1csc(NC(=O)NCC(O)CO)n1 (stereo not drawn) [Example A244, 1-(4-(2-(4-chlorophenyl)but-3-yn-2-yl)thiazol-2-yl)-3-(2,3-dihydroxypropyl)urea]	72	1030	4790		

SMILES	IC50 (ALPK1) [nM]	IC50 ([1]; Homo sapiens, HEK293) [nM]	IC50 (hALPK1-V1092A) [nM]	IC50 [1] [nM]	IC50 (ALPK1; [2]) [nM]
C#C[C@@](C)(c1ccc(Cl)cc1)c1csc(NC(=O)N2CC(c3ccc(N4CCNCC4)c(F)c3)C2)n1 [Example A245]	16	680	304		
C#C[C@@](C)(c1ccc(Cl)cc1)c1csc(NC(=O)NCCC(C)(C)O)n1 [Example A249, (S)-1-(4-(2-(4-chlorophenyl)but-3-yn-2-yl)thiazol-2-yl)-3-(3-hydroxy-3-methylbutyl)urea]	128	670	11700		
C#C[C@](C)(c1ccc(Cl)cc1)c1csc(NC(N)=O)n1 [Example A251, (R)-1-(4-(2-(4-chlorophenyl)but-3-yn-2-yl)thiazol-2-yl)urea]	81	1670	892		
C#C[C@@](C)(c1ccc(Cl)cc1)c1csc(NC(N)=O)n1 [Example A252, (S)-1-(4-(2-(4-chlorophenyl)but-3-yn-2-yl)thiazol-2-yl)urea]	30	530	723		
C#CC(C)(c1ccc(Cl)cc1)c1csc(NC(=O)N2CC(N3CCNCC3)C2)n1 (stereo not drawn) [Example A261, N-(4-(2-(4-chlorophenyl)but-3-yn-2-yl)thiazol-2-yl)-3-(piperazin-1-yl)azetidine-1-carboxamide]	83	510	573		
C#C[C@@](C)(c1ccc(Cl)cc1)c1csc(NC(=O)NCCS(N)(=O)=O)n1 [Example A289, 2-(3-(4-(2-(4-chlorophenyl)but-3-yn-2-yl)thiazol-2-yl)ureido)ethanesulfona-mide]	54	470	439		
C#C[C@](C)(c1ccc(OC)cc1)c1csc(NC(=O)NCCS(N)(=O)=O)n1 [Example A310, 2-(3-(4-(2-(4-methoxyphenyl)but-3-yn-2-yl)thiazol-2-yl)ureido)ethanesulfona-mide]	223	980	1910		
C#CC(C)(c1ccc(F)cc1)c1csc(NC(=O)c2c(F)cc(N3CCNCC3CO)cc2F)n1 (stereo not drawn) [Example B099, 2,6-difluoro-N-[4-[1-(4-fluorophenyl)-1-methyl-prop-2-ynyl]thiazol-2-yl]-4-[2-(hydroxymethyl)piperazin-1-yl]benzamide]			427		30
C#CC(C)(c1ccc(OC)cc1)c1csc(NC(=O)c2c(F)cc(N3CCNCC3CO)cc2F)n1 (stereo not drawn) [Example B100, 2,6-difluoro-4-[2-(hydroxymethyl)piperazin-1-yl]-N-[4-[1-(4-methoxyphenyl)-1-methyl-prop-2-ynyl]thiazol-2-yl]benzamide]			429		21
CC(c1ccccc1)c1csc(NC(=O)c2c(F)cc(N3CCNCC3)cc2F)n1 (stereo not drawn) [Example C002, 2,6-difluoro-N-(4-(1-phenylethyl)thiazol-2-yl)-4-(piperazin-1-yl)benzamide]			3370		47
C#C[C@@](C)(c1ccc(Cl)cc1)c1csc(NC(=O)c2c(F)cc(N3CCN(C)CC3)cc2F)n1 [Example C011, (S)-N-(4-(2-(4-chlorophenyl)but-3-yn-2-yl)thiazol-2-yl)-2,6-difluoro-4-(4-methylpiperazin-1-yl)benzamide]			353		18
COCC(C)(c1ccc(Cl)cc1)c1csc(NC(=O)c2c(F)cc(N3CCNCC3)cc2F)n1 (stereo not drawn) [Example C016, N-(4-(2-(4-chlorophenyl)-1-methoxypropan-2-yl)thiazol-2-yl)-2,6-difluoro-4-(piperazin-1-yl)benzamide]			1590		16
COC[C@@](C)(c1ccccc1)c1csc(NC(=O)c2c(F)cc(N3CCNCC3)cc2F)n1 [Example C018, (S)-2,6-difluoro-N-(4-(1-methoxy-2-phenylpropan-2-yl)thiazol-2-yl)-4-(piperazin-1-yl)benzamide]			1920		36
CC#CC(C)(c1ccc(Cl)cc1)c1csc(NC(=O)c2c(F)cc(N3CCNCC3)cc2F)n1 (stereo not drawn) [Example C039, N-(4-(2-(4-chlorophenyl)pent-3-yn-2-yl)thiazol-2-yl)-2,6-difluoro-4-(piperazin-1-yl)benzamide]			959		36
C#Cc1ccc(C(C)(C#C)c2csc(NC(=O)c3c(F)cc(N4CCNCC4)cc3F)n2)cc1 (stereo not drawn) [Example C042, N-[4-[1-(4-ethynylphenyl)-1-methyl-prop-2-ynyl]thiazol-2-yl]-2,6-difluoro-4-piperazin-1-yl-benzamide]			225		101
CC(c1ccccc1)(c1ccc(Cl)cc1)c1csc(NC(=O)c2c(F)cc(N3CCNCC3)cc2F)n1 (stereo not drawn) [Example C046, N-(4-(1-(4-chlorophenyl)-1-phenylethyl)thiazol-2-yl)-2,6-difluoro-4-(piperazin-1-yl)benzamide]			4450		377
